Read-outs that look alike come from different tables or passages of the source.
How the values were obtained:
[1] = tested on: Pseudomonas aeruginosa (Pa); experiment: MIC for Pseudomonas aeruginosa, nutrient agar; type: cell-based, Pseudomonas aeruginosa ATCC 10145; details: 48 hours, read-out: Minimum Inhibitory Concentration (MIC), Pa
Method: (§1) The minimum inhibitory concentration (MIC) for the compounds listed in Table I is determined for 9 bacteria, using nutrient agar; and 7 yeast and fungi, using malt yeast agar. A one percent solution of the test compound is prepared in a mixture of acetone and water.
(§2) Nutrient agar is prepared at pH 6.8, representing a neutral medium, and at pH 8.2, representing an alkaline medium. The nutrient agars are prepared by adding 23 g of nutrient agar to one-liter of deionized water. In addition, the alkaline medium is prepared by adjusting a 0.04M solution of N-[tris-(hydroxymethyl)methyl]-glycine buffered deionized water with concentrated sodium hydroxide to a pH of 8.5.
(§3) The test tubes containing the malt yeast agar and the nutrient agar are cooled in a water bath until the temperature of the agar is 48° C. Then, an appropriate amount of the one percent solution of the test compound is added (except in the controls where no compound is added) to the respective test tubes so that the final concentrations are zero (0), 1.0, 2.5, 5, 10, 25, 50, 100, 250 and 500 parts per million of the test compound in each of the respective type of agar. The contents of each of the test tubes are then transferred to separate petri plates. After drying for 24 hours, the petri plates containing nutrient agar are inoculated with bacteria and those containing malt yeast agar are inoculated with yeast and fungi.
(§4) The inoculation with bacteria is accomplished by using the following procedure. Twenty-four hour-cultures of each of the bacteria are prepared by incubating the respective bacteria in tubes containing nutrient broth for 24 hours at 30° C. in a shaker. Dilutions of each of the 24 hour-cultures are made so that nine separate suspensions (one for each of the nine test bacteria) are made, each containing 10^8 colony forming units (CFU) per mL of suspension of a particular bacteria. Aliquots of 0.3 mL of each of the bacterial suspensions are used to fill the individual wells of Steer's Replicator. For each microbial suspension, 0.3 mL was used to fill three wells (i.e., three wells of 0.3 mL each) so that for the nine different bacteria, 27 wells are filled. The Steer's Replicator is then used to inoculate both the neutral and alkaline pH nutrient agar petri plates.
(§5) The inoculated petri plates are incubated at 30° C. for 48 hours and then read to determine if the test compound which is incorporated into the agar prevented growth of the respective bacteria.
(§6) Table II list the bacteria, yeast and fungi used in the MIC test described above along with their respective American Type Culture Collection (ATCC) identification numbers.

Bacillus subtilis (Bs) = experiment: MIC for Bacillus subtilis, nutrient agar; type: cell-based, Bacillus subtilis ATCC 8473; details: 48 h
Method: as §1, §2, §3, §4, §5, §6

[2] = tested on: Klebsiella pneumonias (Kp); experiment: MIC for Klebsiella pneumonias, nutrient agar; type: cell-based, Klebsiella pneumonias ATCC 8308; details: 48 h
Method: as §1, §2, §3, §4, §5, §6

Trichoderma viride (Tv) = experiment: MIC for Trichoderma viride, malt yeast agar; type: cell-based, Trichoderma viride ATCC 8678; details: 72 h, read-out: Minimum Inhibitory Concentration (MIC), Tv
Method: as §1
(§7) Malt yeast agar is prepared by adding 3 g yeast extract and 45 g malt agar per liter of deionized water. The specific agar is dispensed in 30 mL aliquots into 25×200 mm test tubes, capped and autoclaved for 15 minutes at 115° C.
as §3
(§8) The inoculation with the yeast and fungi is accomplished as follows. Cultures of yeast and fungi are incubated for seven days on malt yeast agar at 30° C. These cultures are used to prepare suspensions by the following procedure. A suspension of each organism is prepared by adding 10 mL of sterile saline and 10 microliters of octylphenoxy polyethoxy ethanol to the agar slant of yeast or fungi. The sterile saline/octylphenoxy polyethoxy ethanol solution is then agitated with a sterile swab to suspend the microorganism grown on the slant. Each resulting suspension is diluted into sterile saline (1 part suspension: 9 parts sterile saline). Aliquots of these dilutions are placed in individual wells of Steer's Replicator and petri plates inoculated as previously described. The petri plates are incubated at 30° C. and read after 48 hours for yeast and 72 hours for fungi.
as §6

Saccharomyces cerevisiae = experiment: MIC for Saccharomyces cerevisiae, malt yeast agar; type: cell-based, Saccharomyces cerevisiae ATCC 4105; details: 48 h, read-out: Minimum Inhibitory Concentration (MIC), Sc
Method: as §1, §7, §3, §8, §6

[3] = tested on: Penicillium chrysogenum (Pc); experiment: MIC for Penicillium chrysogenum, malt yeast agar; type: cell-based, Penicillium chrysogenum ATCC 9480; details: 72 h, read-out: Minimum Inhibitory Concentration (MIC), PC
Method: as §1, §7, §3, §8, §6

Escherichia coli (Ec) = experiment: MIC for Escherichia coli, nutrient agar; type: cell-based, Escherichia coli ATCC 11229; details: 48 h
Method: as §1, §2, §3, §4, §5, §6

[4] = tested on: Pseudomonas aeruginosa (PRD-10); experiment: MIC for Pseudomonas aeruginosa PRD-10, nutrient agar; type: cell-based, Pseudomonas aeruginosa ATCC 15442; details: 48 h
Method: as §1, §2, §3, §4, §5, §6

Aspergillus niger (An) = experiment: MIC for Aspergillus niger, malt yeast agar; type: cell-based, Aspergillus niger ATCC 16404; details: 72 h, read-out: Minimum Inhibitory Concentration (MIC), An
Method: as §1, §7, §3, §8, §6

[5] = tested on: Aureobasidium pullulan (Ap); experiment: MIC for Aureobasidium pullulan, malt yeast agar; type: cell-based, Aureobasidium pullulan ATCC 16622; details: read-out: Minimum Inhibitory Concentration (MIC), Ap
Method: as §1, §7, §3, §8, §6

[6] = tested on: Staphylococcus aureus (Sa); experiment: MIC for Staphylococcus aureus, nutrient agar; type: cell-based, Staphylococcus aureus ATCC 6538; details: 48 h
Method: as §1, §2, §3, §4, §5, §6

Candida albicans (Ca) = experiment: MIC for Candida albicans, malt yeast agar; type: cell-based, Candida albicans ATCC 10231; details: 48 h, read-out: Minimum Inhibitory Concentration (MIC), Ca
Method: as §1, §7, §3, §8, §6

Fusarium oxysporum (Fo) = experiment: MIC for Fusarium oxysporum, malt yeast agar; type: cell-based, Fusarium oxysporum ATCC 48112; details: 72 h, read-out: Minimum Inhibitory Concentration (MIC), Fo
Method: as §1, §7, §3, §8, §6

[7] = tested on: Enterobacter aerogenes (Ea); experiment: MIC for Enterobacter aerogenes, nutrient agar; type: cell-based, Enterobacter aerogenes ATCC 13048; details: Klebsiella aerogenes, 48 h
Method: as §1, §2, §3, §4, §5, §6

Salmonella choleraesuis = experiment: MIC for Salmonella choleraesuis, nutrient agar; type: cell-based, Salmonella choleraesuis ATCC 10708; details: Salmonella enterica, 48 h
Method: as §1, §2, §3, §4, §5, §6

Proteus vulgaris (Pv) = experiment: MIC for Proteus vulgaris, nutrient agar; type: cell-based, Proteus vulgaris ATCC 881; details: 48 h
Method: as §1, §2, §3, §4, §5, §6

Measured: MIC

ClC=CC[N+]12CN3CN(CN(C3)C1)C2.[Cl-] [STANDARD I, 1-(3-chloroallyl)-3,5,7-triaza-1-azoniaadamantane chloride, reference compound]
50 µg/mL: Bacillus subtilis (Bs); pH 6.8, read-out: Minimum Inhibitory Concentration (MIC), Bs | [2]; pH 6.8, read-out: Minimum Inhibitory Concentration (MIC), Kp | Salmonella choleraesuis; pH 6.8, read-out: Minimum Inhibitory Concentration (MIC), SC | Proteus vulgaris (Pv); pH 6.8, read-out: Minimum Inhibitory Concentration (MIC), Pv
250 µg/mL: Bacillus subtilis (Bs); pH 8.2, read-out: Minimum Inhibitory Concentration (MIC), Bs | [2]; pH 8.2, read-out: Minimum Inhibitory Concentration (MIC), Kp | Escherichia coli (Ec); pH 8.2, read-out: Minimum Inhibitory Concentration (MIC), Ec | [6]; pH 8.2, read-out: Minimum Inhibitory Concentration (MIC), Sa | [7]; pH 8.2, read-out: Minimum Inhibitory Concentration (MIC), Ea | Proteus vulgaris (Pv); pH 8.2, read-out: Minimum Inhibitory Concentration (MIC), Pv
> 500 µg/mL: [1]; pH 8.2, 30° C. | Trichoderma viride (Tv) | [3] | Aspergillus niger (An) | [5] | Candida albicans (Ca) | Fusarium oxysporum (Fo)
100 µg/mL: [1]; pH 6.8, 30° C. | Escherichia coli (Ec); pH 6.8, read-out: Minimum Inhibitory Concentration (MIC), Ec | [4]; pH 6.8, read-out: Minimum Inhibitory Concentration (MIC), PRD | [6]; pH 6.8, read-out: Minimum Inhibitory Concentration (MIC), Sa | [7]; pH 6.8, read-out: Minimum Inhibitory Concentration (MIC), Ea | Salmonella choleraesuis; pH 8.2, read-out: Minimum Inhibitory Concentration (MIC), SC
500 µg/mL: Saccharomyces cerevisiae | [4]; pH 8.2, read-out: Minimum Inhibitory Concentration (MIC), PRD

Reference: patent publication US5488051A, “Substituted 5,6-dihydro-5-oxo-1,4-dithiino-(2,3-d)-pyridazine-2,3-dicarbonitriles, compositions containing them and their use as antimicrobials” (The Dow Chemical Company, priority 1994, dated 1996)
